Measured values reported in patent publication US9976170B2, “Method for evaluating bacterial cell wall integrity” (UNIVERSIDAD AUTONOMA DE MADRID, priority 2011, dated 2018).
≈ marks a conversion by molar mass, not a printed value.

Legend:
Format in all cases: cell-based
[1] = tested on: ampicillin-sensitive E. coli strain; assay: incubation with increasing doses of antibiotic, lysed/non-lysed cells normalized by OD 600 (persisters); conditions: 60 minutes; for Lysed Cells Relative / Non-lysed Cells Relative: normalized by OD 600
[2] = tested on: Enterococcus faecalis, ampicillin-sensitive and benzylpenicillin-resistant strain; assay: MIC by microdilution and/or E-test
Excerpt: (§1) The strains and the antibiotics used were: • Gram+ • Enterococcus faecalis.
(§2) The doses of antibiotic applied were 0, the MIC determined in the Microbiology Laboratory by means of the microdilution and/or E-test technique, and those of the cutoff points of sensitivity and resistance indicated by the Clinical and Laboratory Standards Institute (CLSI) for each strain. A dose 10 times higher than the MIC was also used.

[3] = tested on: Enterococcus faecium, ampicillin- and benzylpenicillin-resistant strain; assay: MIC by microdilution and/or E-test
Excerpt: as §1, §2

[4] = tested on: Enterococcus faecalis, ampicillin-sensitive and benzylpenicillin-resistant strain; assay: technique for evaluating cell wall integrity (lysis solution, nucleoid release, fluorescence microscopy); conditions: 60 minutes
Description: (§3) Different bacterial strains grown on a dish with Mueller-Hinton medium for 24 hours were subsequently exposed to a β-lactam antibiotic for 60 minutes in Mueller-Hinton liquid medium at 37° C., under stirring, and were finally processed by means of the technique for evaluating cell wall integrity according to the present invention.
as §2

[5] = tested on: Escherichia coli, ampicillin- and ceftazidime-resistant strain; assay: as above; conditions: 60 minutes
Description: as §3, §2

[6] = tested on: Enterococcus faecium, ampicillin- and benzylpenicillin-resistant strain; assay: as above; conditions: 320 μg/mL, 60 minutes
Description: as §3, §2

[7] = tested on: Escherichia coli, ceftazidime-sensitive strain with intermediate sensitivity to ampicillin; assay: as above; conditions: 60 minutes
Description: as §3, §2

[8] = tested on: ampicillin-sensitive E. coli strain; assay: microgranular-fibrillar background in microgels stained with SYBR Gold (Example 8); conditions: 32 μg/mL, 60 minutes
Description: The experiment was conducted with a strain of ampicillin-sensitive E. coli and a strain of imipenem-sensitive A. baumanii. The first strain was incubated with 32 μg/mL ampicillin and the second strain with 0.76 μg/mL imipenem for 60 minutes in Mueller-Hinton liquid medium at 37° C. under stirring. After incubation, each culture with the cells was included in microgels on the slide. A microgel containing the antibiotic-free control culture, and 2 microgels containing the culture treated with antibiotic were placed on each slide. The size of each microgel corresponds to a 18×18 mm slide cover. The microgels on some slides were washed in a proteinase K buffer (1% SDS, 2 mM EDTA) and the microgels on other slides were washed in a DNAase I buffer (20 mM Tris-HCl, pH 8.3, 2 mM MgCl2). In the former, one of the microgels containing the culture treated with ampicillin was incubated only with a proteinase K buffer and the other microgel containing the culture treated with ampicillin was incubated with 5 μl of 2 mg/mL proteinase K, in the buffer thereof. In the slides washed with a DNAase I buffer, one of the microgels containing the culture treated with ampicillin was incubated only with a DNAase I buffer and the other microgel containing the culture treated with ampicillin was incubated with 5 μl of 2.5 U DNAase I, in the buffer thereof. […]

CC1(C)S[C@@H]2[C@H](NC(=O)[C@H](N)c3ccccc3)C(=O)N2[C@H]1C(=O)O [ampicillin]
Lysed Cells % ([1]; dose 2 μg/mL): 90.3% | Non-lysed Cells % ([1]; dose 2 μg/mL): 9.7% | OD600 (ODinitial = 0.1) ([1]; dose 2 μg/mL): 0.323 | RELATIVE OD600 % ([1]; dose 2 μg/mL): 77.6% | Lysed Cells Relative ([1]; dose 2 μg/mL): 70.1 | Non-lysed Cells Relative ([1]; dose 2 μg/mL): 7.5 | Lysed Cells % ([1]; dose 8 μg/mL): 70.6% | Non-lysed Cells % ([1]; dose 8 μg/mL): 29.3% | OD600 (ODinitial = 0.1) ([1]; dose 8 μg/mL): 0.120 | RELATIVE OD600 % ([1]; dose 8 μg/mL): 28.8% | Lysed Cells Relative ([1]; dose 8 μg/mL): 20.4 | Non-lysed Cells Relative ([1]; dose 8 μg/mL): 8.5 | Lysed Cells % ([1]; dose 16 μg/mL): 37.5% | Non-lysed Cells % ([1]; dose 16 μg/mL): 62.5% | OD600 (ODinitial = 0.1) ([1]; dose 16 μg/mL): 0.050 | RELATIVE OD600 % ([1]; dose 16 μg/mL): 12.0% | Lysed Cells Relative ([1]; dose 16 μg/mL): 4.5 | Non-lysed Cells Relative ([1]; dose 16 μg/mL): 7.5 | Lysed Cells % ([1]; dose 32 μg/mL): 22.5% | Non-lysed Cells % ([1]; dose 32 μg/mL): 77.5% | OD600 (ODinitial = 0.1) ([1]; dose 32 μg/mL): 0.027 | RELATIVE OD600 % ([1]; dose 32 μg/mL): 6.5% | Lysed Cells Relative ([1]; dose 32 μg/mL): 1.5 | Non-lysed Cells Relative ([1]; dose 32 μg/mL): 5.0 | Lysed Cells % ([1]; dose 160 μg/mL): 15.0% | Non-lysed Cells % ([1]; dose 160 μg/mL): 85.0% | OD600 (ODinitial = 0.1) ([1]; dose 160 μg/mL): 0.024 | RELATIVE OD600 % ([1]; dose 160 μg/mL): 5.8% | Lysed Cells Relative ([1]; dose 160 μg/mL): 0.9 | Non-lysed Cells Relative ([1]; dose 160 μg/mL): 4.9 | relative proportion of non-lysed cells ([1]; over all increasing doses, according to relative OD 600): 5-8.5 | MIC [2]: 4 µg/mL (≈ 11.4 µM) | MIC [3]: > 32 µg/mL | background of extracellular DNA fragments ([4]; 4 μg/mL (MIC)): subtle background | cells lysed with fragmented DNA ([4]; 4 μg/mL (MIC)): 12% | heavily lysed cells ([4]; 4 μg/mL (MIC)): 35% | moderately lysed cells ([4]; 4 μg/mL (MIC)): 25% | non-lysed cells ([4]; 4 μg/mL (MIC)): 28% | background of extracellular DNA fragments ([4]; 40 μg/mL): very faint | cells lysed with fragmented DNA nucleoid ([4]; 40 μg/mL): 2% | cells with a large lysis halo ([4]; 40 μg/mL): 20% | cells with a small halo ([4]; 40 μg/mL): 15% | non-lysed cells ([4]; 40 μg/mL): 63% | background of extracellular DNA fragments ([5]; 256 μg/mL): without background | cells lysed with nucleoid with fragmented DNA ([5]; 256 μg/mL): 1% | lysed cells ([5]; 256 μg/mL): 0.5% | background of extracellular DNA fragments ([5]; 2,560 μg/mL): subtle background | cells lysed with nucleoid with fragmented DNA ([5]; 2,560 μg/mL): 1.5% | empty capsules ([5]; 2,560 μg/mL): 4% | heavily lysed cells ([5]; 2,560 μg/mL): 13% | moderately lysed cells ([5]; 2,560 μg/mL): 5% | background of extracellular DNA fragments [6]: subtle background | cells with a small halo [6]: 2% | heavily lysed cells [6]: 7.5% | lysed cells with nucleoid with fragmented DNA [6]: 1% | non-lysed cells [6]: 89% | background of extracellular DNA fragments ([7]; 8 μg/mL): extensive background | cells lysed with nucleoid with fragmented DNA ([7]; 8 μg/mL): 9% | heavily lysed cells ([7]; 8 μg/mL): 55% | empty capsules ([7]; 16 μg/mL (MIC)): 22.6 | lysed cells with a large halo ([7]; 16 μg/mL (MIC)): 60.4% | lysed cells with nucleoid with fragmented DNA ([7]; 16 μg/mL (MIC)): 5.7% | non-lysed cells ([7]; 16 μg/mL (MIC)): 11.3% | cells with a large halo ([7]; 20 μg/mL): 47.3% | empty capsules ([7]; 20 μg/mL): 31.2% | lysed cells with nucleoid with fragmented DNA ([7]; 20 μg/mL): 8.6% | non-lysed cells ([7]; 20 μg/mL): 12.9% | empty capsules ([7]; 32 and 160 μg/mL): 54% | microgranular-fibrillar background in the preparation [8]: showed the background
